According to paper PMC11206789, “Controlling the Solubility, Release Rate and Permeation of Riluzole with Cyclodextrins” (Pharmaceutics, 2024):

Assays:
[1] = Dissolution of solid samples under dynamic conditions, side-by-side cell; assay type: physicochemical; conditions: for DE60, dissolution efficacy at 60 min / DPP, dissolution performance parameter / Q15, amount of RLZ dissolved at 15 min: buffer pH 6.8, 310 K; for Q15, amount of RLZ dissolved at 15 min: RLZ amount of 100 mg daily dose; for Dose dissolved during 180 min: buffer pH 6.8, 310.15 K
Experimental: The volume of the donor compartment was 7 mL. The powdered samples were placed in the donor cell. Then, 7 mL of buffer pH 6.8 was added to the donor compartment (start of the experiment). The solution was stirred with a stirring bar at a fixed speed of 500 rpm. The cell was maintained at 310.15 K during the experiment via water circulating. The samples of the solutions (V = 0.4 mL) from the donor cell were withdrawn every 5, 10, 15, 20, 25, 30, 40, 60, 90, 120, and 180 min followed by immediate replacement with fresh medium. The experiment lasted 3 h. The samples from the donor cell were filtered (syringe nylon filter, 13 mm diameter, pore size 0.45 μm). The concentrations of the samples were measured in a 96-well UV black plate (Costar) using a spectrophotometer (Spectramax 190; Molecular devices, Molecular Devices Corporation, San Jose, CA, USA). The kinetic curves of the dissolution/release of pure RLZ and RLZ from the solid samples were obtained.
The dissolution performance parameter (DPP), was calculated as follows:(16) DPP=AUCactual/AUCtheoretical×100% where AUCactual is the integral area under the curve C0Ct, and AUCtheoretical is the integral area under the curve CmaxCmax. Dissolution efficacy after 60 min (DE60)—a percentage of the area of the rectangle described by 100% dissolution at 60 min was determined by the calculation of the area under a dissolution curve up to 60 min by the following equation [49]:(17) DE60=∫060Qdt/Q100%×60×100% where Q is the percentage of the dissolved drug, t is the dissolution time point at 60 min.

[2] = Permeation under dynamic conditions (D/P setup), cellulose membrane; assay type: in vitro ADME; conditions: RC membrane, 310.15 K
Excerpt: The membrane of regenerated cellulose MWCO 12–14 kDa (Visking dialysis tubing MWCO 12–14 kDa, Medicell Membranes Ltd., London, UK) was applied as a barrier between the donor and receptor cells with an effective surface area of 1.77 cm^2. In addition, the PermeaPad barrier (PP) (PHABIOC, Germany, https://www.permeapad.com (accessed on 1 February 2023)) and polydimethylsiloxane-polycarbonate (55% polydimethylsiloxane and 45% polycarbonate, 40 μm in thickness) membrane “Carbosil” (PDS) (PENTAMED, Moscow, Russia, www.penta-med.ru) were used in a series of tests. The volume of the receptor compartment was the same as the donor one—7 mL. The donor and receptor cells were assembled with a membrane between them. The receptor compartment was filled with 7 mL of buffer pH 6.8. In the case of the samples with CD, the receptor solution contained the amount of CD equivalent to that in the solid sample. The solution in the receptor cell was stirred at 500 rpm. The constant temperature of 310.15 K was maintained. […]
Quantitative analysis of the permeation was evaluated using the flux (J) through the membrane which was determined as a slope of the permeation profiles representing the amount of permeated compound over the surface area (dQ/A) versus the time (t) in accordance with the equation:(20) J=dQ/A×dt

[3] = RLZ/CD stability constant from phase-solubility diagrams, van't Hoff thermodynamics; assay type: physicochemical; conditions: for Complexation (stability) constant KCS of RLZ/CD complex: 1:1 complex
Experimental: The standard (at 298.15 K) enthalpy change ( ΔHC0,S ) and the standard entropy change ( ΔSC0,S ) upon complex formation were calculated with the help of the integral form of the van’t Hoff’s equation:(4) lnKCS=−ΔHC0,S/RT+ΔSC0,S/R where T = 298.15 K, and R is the universal gas constant. A plot of lnKCS versus 1/T produces Slope=−ΔHC0,S/R and intercept equal to ΔSC0,S/R . The standard (at 298.15 K) change of the complexation Gibbs energy ( ΔGC0,S ) was calculated as follows:(5) ΔGC0,S=−RTlnKCS

[4] = 298.15 K, in water with undefined pH; cited from earlier work

Nc1nc2ccc(OC(F)(F)F)cc2s1 [RLZ_gr]
DE60, dissolution efficacy at 60 min [1]: 39.9% | DPP, dissolution performance parameter [1]: 57.0% | Q15, amount of RLZ dissolved at 15 min [1]: 28.3% | Dose dissolved during 180 min ([1]; listed as ground RLZ): 72% | Similarity factor f2 ([1]; reference raw RLZ, f2 > 50 shows similarity): 49.9 | Increase of flux across the membrane, 30–180 min versus up to 30 min [2]: 1.3 fold

sulfobutylether-β-cyclodextrin [SBE-β-CD]
Fold more stable RLZ complex as compared to α-CD ([3]; from Table 2): 11 fold | Complexation (stability) constant KCS of RLZ/CD complex ([3]; pH 6.8, 298.15 K): 1116.0 M⁻¹

COC[C@H]1O[C@@H]2O[C@H]3[C@H](O)[C@@H](OC)[C@@H](O[C@H]4[C@H](O)[C@@H](OC)[C@@H](O[C@H]5[C@H](O)[C@@H](OC)[C@@H](O[C@H]6[C@H](O)[C@@H](OC)[C@@H](O[C@H]7[C@H](O)[C@@H](OC)[C@@H](O[C@H]8[C@H](O)[C@@H](OC)[C@@H](O[C@H]1[C@H](O)[C@H]2OC)O[C@@H]8COC)O[C@@H]7COC)O[C@@H]6COC)O[C@@H]5COC)O[C@@H]4COC)O[C@@H]3COC [DM-β-CD, 2,6-di-O-methyl-β-cyclodextrin]
Stability constant of cyclodextrin complex with RLZ [4]: 1609.1 M⁻¹

OC[C@H]1O[C@@H]2O[C@H]3[C@H](O)[C@@H](O)[C@@H](O[C@H]4[C@H](O)[C@@H](O)[C@@H](O[C@H]5[C@H](O)[C@@H](O)[C@@H](O[C@H]6[C@H](O)[C@@H](O)[C@@H](O[C@H]7[C@H](O)[C@@H](O)[C@@H](O[C@H]1[C@H](O)[C@H]2O)O[C@@H]7CO)O[C@@H]6CO)O[C@@H]5CO)O[C@@H]4CO)O[C@@H]3CO [α-CD, α-cyclodextrin]
Fold lower association constant of RLZ as compared to SBE-β-CD [3]: approximately 11 fold | Complexation (stability) constant KCS of RLZ/CD complex ([3]; pH 6.8, 310.15 K): 102.3 M⁻¹

CC(O)COC[C@H]1O[C@@H]2O[C@H]3[C@H](O)[C@@H](O)[C@@H](O[C@H]4[C@H](O)[C@@H](O)[C@@H](O[C@H]5[C@H](O)[C@@H](O)[C@@H](O[C@H]6[C@H](O)[C@@H](O)[C@@H](O[C@H]7[C@H](O)[C@@H](O)[C@@H](O[C@H]8[C@H](O)[C@@H](O)[C@@H](O[C@H]1[C@H](O)[C@H]2O)O[C@@H]8COCC(C)O)O[C@@H]7COCC(C)O)O[C@@H]6COCC(C)O)O[C@@H]5COCC(C)O)O[C@@H]4COCC(C)O)O[C@@H]3COCC(C)O (stereo partly drawn) [HP-β-CD, hydroxypropyl-β-cyclodextrin]
Stability constant of cyclodextrin complex with RLZ [4]: 2327 M⁻¹

Nc1nc2ccc(OC(F)(F)F)cc2s1 [RLZ_raw]
DE60, dissolution efficacy at 60 min [1]: 30.0% | DPP, dissolution performance parameter [1]: 46.2% | Q15, amount of RLZ dissolved at 15 min [1]: 22.9% | Dose dissolved during 180 min ([1]; listed as raw RLZ): 62% | Increase of flux across the membrane, 30–180 min versus up to 30 min [2]: 1.3 fold
